# Experimental data published in patent publication US6348445B1, “Biologically active peptides with reduced toxicity in animals and a method for preparing same” (priority 1992, dated 2002).
# Read-outs that look alike come from different tables or passages of the source. Where a SMILES comes first, the peptide text is derived from it. Where no end group is shown, it is not given here. [ ]: non-standard residue; d: D form. The star is where a group is joined. Octanoyl = CCCCCCCC(=O)*; Orn = NCCC[C@H](N)C(=O)O
# Assays:
# [1] = tested on: P. aeruginosa strain ATCC 27853; format: cell-based
# Summary of the method: (§1)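 Peptides serially diluted 1:2 to final 0.25–256 μg/ml in Mueller Hinton broth, inoculated with 1-5×10^5 CFUs/ml from mid-log culture. Incubated 16-20 hours at 37° C. MIC = lowest peptide concentration giving a clear well.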
# [2] = tested on: WM 1617 human melanoma cells; format: cell-based; conditions: 24 h
# Description: (§2) Human lung carcinoma cells, A-549 (ATCC), and human breast carcinoma cells, MDA-435 (from Sandoz), were grown in Ham's F12K medium (GIBCO-BRL) supplemented with […] fetal bovine serum. Human chronic myelogenous leukemia cells, K-562 (ATCC), were maintained in RPMI 1640 medium (GIBCO-BRL) supplemented with 10% fetal bovine serum. Human melanoma cell line, WM 1617 (from the Wistar Institute), was maintained in 2% Tumor media.
# (§3) Cytotoxicity assays were performed on the cell lines described above using CytoLite (Packard Instrument Company) following the manufacture's instruction. Briefly, 2×10^4cells/well were seeded into black, 96-well ViewPlates (Packard Instrument Company) in 100 μl/well growth medium. Ser. dilutions of Magainin peptides were then added into the cells and the plates incubated for 24 hours in a humidified 5% CO2 atmosphere at 37° C. Following incubation, 25 μl/well of CytoLite activator solution was added followed by 125 μl/well of amplifier solution. Luminescence was measured on TopCount Microplate Scintillation and Luminescence counter (Packard Instrument Company) using a 1 second count time in SPC (single photon counting) mode at 25 ° C. All assays were performed in triplicate. The peptides tested in this assay were MSI-78(SEQ ID NO: 154 —NH2), MSI-1858(SEQ ID NO: 154 —NH2 Methane Sulfonate), MSI-344(SEQ ID NO: 154 —OH) and MSI-1857(SEQ ID NO: 154 —OH Methane Sulfonate). The results of these assays are shown in FIGS. 2-9 with the corresponding IC50 values in Table VIII. In all cases the activity of the methane sulfonated peptide was as good or better than the parent peptide as indicated by both the survival curves and the IC50 values.
# [3] = tested on: K-562 human chronic myelogenous leukemia cells; format: cell-based; conditions: 24 h
# Description: as §2, §3
# [4] = tested on: A-549 human lung carcinoma cells; format: cell-based; conditions: 24 h
# Description: as §2, §3
# [5] = tested on: MDA-435 human breast carcinoma cells; format: cell-based; conditions: 24 h
# Description: as §2, §3
# [6] = tested on: E. coli ATCC strain 25922; test: Minimal Inhibitory Concentration, microtiter broth dilution; format: cell-based
# Summary of the method: as §1
# S. aureus ATCC 29213 = format: cell-based
# [7] = tested on: clinical strains of P. aeruginosa isolated from cystic fibrosis patients; test: MIC against clinical isolates of P. aeruginosa; format: cell-based, Pseudomonas aeruginosa; conditions: clinical isolate
# Description: (§4) The procedure for the anti-bacterial assay is based upon the guidelines of the National Committee for Clinical Laboratory Standards, Document M7-T2, Volume 8, No. 8, 1988, which document is entirely incorporated herein by reference.
# (§5) Stock solutions of peptides, with and without the appropriate substitutions, were prepared at a concentration of 512 μg/ml in sterile deionized distilled water and stored at −70° C.
# (§6) The stock peptide solution was diluted in serial dilutions (1:2) down the wells of a microtiter plate so that the final concentrations of peptides in the wells were 0.25, 0.50, 1, 2, 4, 8, 16, 32, 64, 128 and 256 μg/ml. 1-5×10^5 CFUs/ml of either S. aureus ATCC 25923, E. coli ATCC 25922, P. aeruginosa ATCC 27853, or C. albicans, were added to the wells in full strength Mueller Hinton broth (BBL 11443) from a mid-log culture. The inoculum was standardized spectrophotometrically at 600 nm and was verified by colony counts. The plates were incubated for 16-20 hours at 37° C., and the minimal inhibitory concentration (MIC) for each peptide was determined. Minimal inhibitory concentration is defined as the lowest concentration of peptide which produces a clear well in the microtiter plate. The minimal inhibitory concentration of each of the peptides with and/or without the appropriate substitutions is given in Table I below.
# (§7) The in vitro anti-microbial activities of the methane sulfonate derivatives were determined according to the methods described in Examples 1 and 2. The activities against ATCC strains of S. aureus, E. coli, P. aeruginosa, and C. albicans, and the hemolysis of red blood cells were compared to the parent compound (Table IV). The activities for Compound 843 (Oct-SEQ ID NO:143) methane sulfonate against clinical strains of P. aeruginosa isolated from cystic fibrosis patients were compared to the parent compound (Table V). The activity for Compound 469 (Oct-SEQ ID NO:27) methane sulfonate against P. gingivalis was compared to the parent compound (Table VI).
# E. coli strain 21915-1 = test: survival of mice inoculated intraperitoneally with live E. coli; format: in vivo; conditions: i.v. at 1 and 5 hours post-inoculation, 10 mice
# Description: CD-1 male mice (average body weight, 22.8g) were inoculated with live E. coli strain 21915-1 (2.3×10^5 CFU mouse) by injection intraperitoneally. Oct-(SEQ ID NO: 143)—NH2 then was injected intravenously via the tail vein at 1 and 5 hours post-inoculation. Control mice were inoculated and treated with 0.9% saline. Each different treatment group had 10 mice per group. All control mice died.
# [8] = tested on: S.aureus strain ATCC 25923; test: Minimal Inhibitory Concentration, microtiter broth dilution; format: cell-based; conditions: Mueller Hinton broth, 16-20 hours at 37° C.
# Excerpt: Table I, which follows, indicates the Minimal Inhibitory Concentration (MIC) in […] of various peptides against S.aureus strain ATCC 25923(S), P. aeruginosa strain ATCC 27853(P), E. coli ATCC strain 25922(E), and C. 4albicans (CA). […] The peptides are unsubstituted at the N-terminal; substituted with an acetyl group at the N-terminal, as indicated by Ac-; substituted with an octanoyl group at the N-terminal, as indicated by Oct-; substituted with spinogosine, as indicated by Sph-; substituted with a succinyl group, as indicated by Suc-; substituted with a hexanoyl group, as indicated by Hex-; substituted with a heptanoyl group, as indicated by Hep-; substituted with a valeryl group, as indicated by Val-; substituted with a myristryl group, as indicated by Myr-; or substituted with an ibuprofyl group, as indicated by Ibu-;
# as §4, §5, §6
# C. albicans ATCC 90028 = format: cell-based; conditions: Table IV
# Description: as §4, §5, §6, §7
# [9] = maximal tolerated dose, single intravenous administration of Compound 1324; format: in vivo, mice; conditions: mouse, in vivo; single intravenous bolus, CD-1 mice; read-out: MTD i.v. (maximum tolerated dose, non-lethal)
# Description: Mice received single intravenous administrations of Compound 1324, the methane sulfonate analogue of Compound 843, and were monitored for survival for at least 4 days. There were no deaths at a dose of less than or equal to 180 mg/kg.
# To determine the maximal tolerated dose (MTD) and estimate the lethal dose 50% (LD50) of Compound 1324 sodium when administered intravenously in a single-bolus in mice.
# Animals: On arrival and study initiation, three groups Thirty-seven male CD-1 mice (Charles River Lab)had average body weights of 39, 28 and 28 gm, respectively.
# Solution Prep: A 120 mg/ml of active Compound 1324 (active moiety corrected for) was made in saline. All concentrations from 5 mg/ml to 80 mg/ml were dilutions of the 120 mg/ml solution with saline. The highest concentration used in the intravenous administration was 20 mg/ml.
# Mice were randomly assigned to one of ten groups (4 mice per group, except the highest dose group which only had one mouse). Mice were administered intravenously 10 ml/kg of either 0 (saline), 5, 6, 7, 8, 14, 16, 18, or 20 mg/ml solution for doses of […]. One mouse received 14.1 ml/kg of a 20 mg/ml solution for a dose of 282 mg/kg. Mice were monitored for survival for at least four days post-administration.
# [10] = tested on: lipopolysaccharide from E. coli serotype 0111:B4; test: survival of mice after lipopolysaccharide and galactosamine; format: in vivo
# Description: Oct-(SEQ ID NO: 143)—NH2 was injected intravenously into male C57BL/6J mice (average body weight 20.1 g) approximately two minutes prior to intraperitoneal injection of a solution of lipopolysaccharide (either 0.1 μg or 0.5 μg/mouse) from E. coli serotype 0111:B4 and galactosamine (8 mg/mouse). […] When these doses were administered prior to the administration of 0.1 μg lipopolysaccharide/mouse, the results were 40%, 90%, 100%, 100%, and 100% survival at five days post-lipopolysaccharide administration, respectively.
# red blood cells = test: hemolysis of red blood cells; format: cell-based
# Description: as §7
# C. albicans = format: cell-based; conditions: C. albicans; Table I
# Summary of the method: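 Peptides serially diluted 1:2 to final 0.25–256 μg/ml; inoculum 1-5×10^5 CFU/ml from mid-log culture in full-strength Mueller Hinton broth. Incubated 16-20 h at 37° C. MIC taken as lowest peptide concentration giving a clear well.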
compound,measurement,setting,value
GIGKFLKKAKKFGKAFVKILKK [MSI-78],MIC P. aeruginosa ATCC 27853,[1]; ATCC 27853,16 to 32 µg/mL
same,IC50,[2],3000 nM
same,IC50,[3],9 µM
same,IC50,[4],3000 nM
same,IC50,[5],4 µM
same,MIC E. coli ATCC 25922,[6]; ATCC strain 25922,32 µg/mL
same,MIC S. aureus ATCC 29213,S. aureus ATCC 29213; ATCC 29213,16 µg/mL
CCCCCCCC(=O)N[C@@H](CCCN)C(=O)N[C@@H](CCCN)C(=O)N[C@@H](CC(C)C)C(=O)N[C@@H](CC(C)C)C(=O)N[C@@H](CCCN)C(=O)N[C@@H](CCCN)C(=O)N[C@@H](CC(C)C)C(=O)N[C@@H](CCCN)C(=O)N[C@@H](CCCN)C(=O)N[C@@H](CC(C)C)C(N)=O [Oct-(SEQ ID NO: 143)-NH2] (Octanoyl-[Orn][Orn]LL[Orn][Orn]L[Orn][Orn]L-NH2),MIC Pseudomonas aeruginosa LS-31,[7],16 µg/mL
same,MIC Pseudomonas aeruginosa LS-40,[7],4 µg/mL
same,MIC Pseudomonas aeruginosa LS-43,[7],2 µg/mL
same,Minimal Inhibitory Concentration P,"[1]; P. aeruginosa strain ATCC 27853, Table I",2 µg/mL
same,MIC P. aeruginosa ATCC 27853,[1]; Table IV,2 µg/mL
same,MIC Pseudomonas aeruginosa ATCC 27853,[1]; Table V,4 µg/mL
same,survival at six days post-inoculation,E. coli strain 21915-1; 1 mg/kg in toto,20%
same,survival at six days post-inoculation,E. coli strain 21915-1; 5 mg/kg in toto,40%
same,survival at six days post-inoculation,E. coli strain 21915-1; 10 mg/kg in toto,90%
same,survival at six days post-inoculation,E. coli strain 21915-1; 20 mg/kg in toto,90%
same,Minimal Inhibitory Concentration S,[8],16 µg/mL
same,MIC C. albicans ATCC 90028,C. albicans ATCC 90028,64 µg/mL
same,MTD,[9],20 mg/kg
same,survival at five days post-lipopolysaccharide administration,"[10]; 5 mg/kg i.v. (by order of the list), 0.1 μg lipopolysaccharide/mouse",90%
same,survival at five days post-lipopolysaccharide administration,"[10]; 5 mg/kg i.v., 0.5 μg lipopolysaccharide/mouse",0%
same,survival at five days post-lipopolysaccharide administration,"[10]; 7.5 mg/kg i.v. (by order of the list), 0.1 μg lipopolysaccharide/mouse",100%
same,survival at five days post-lipopolysaccharide administration,"[10]; 7.5 mg/kg i.v., 0.5 μg lipopolysaccharide/mouse",30%
same,survival at five days post-lipopolysaccharide administration,"[10]; 10 mg/kg i.v. (by order of the list), 0.1 μg lipopolysaccharide/mouse",100%
same,survival at five days post-lipopolysaccharide administration,"[10]; 10 mg/kg i.v., 0.5 μg lipopolysaccharide/mouse",0%
same,survival at five days post-lipopolysaccharide administration,"[10]; 12.5 mg/kg i.v. (by order of the list), 0.1 μg lipopolysaccharide/mouse",100%
same,survival at five days post-lipopolysaccharide administration,"[10]; 12.5 mg/kg i.v., 0.5 μg lipopolysaccharide/mouse",50%
same,survival at five days post-lipopolysaccharide administration,"[10]; 15 mg/kg i.v., 0.5 μg lipopolysaccharide/mouse",60%
same,% Hemolysis (500 μg/ml),red blood cells,25%
same,Minimal Inhibitory Concentration CA,C. albicans,16 µg/mL
same,Minimal Inhibitory Concentration E,"[6]; E. coli ATCC strain 25922, Table I",16 µg/mL
same,MIC E. coli ATCC 25922,[6]; Table IV,4 µg/mL
same,MIC S. aureus ATCC 29213,S. aureus ATCC 29213; Table IV,16 µg/mL
